According to patent publication US10195044B2, “Intervertebral disc implant” (Sinai Health System, priority 2013, dated 2019):

Test system: sheep PDCs
Assay: ALP activity of predifferentiated chondrocytes cultured on CPP substrates

For `N[C@@H](Cc1cc(I)c(Oc2ccc(O)c(I)c2)c(I)c1)C(=O)O` [T3, triiodothyronine], the ALP activity (3 nM T3, absence of dexamethasone, 1 week on CPP substrates) was “maximized” and the “ALP activity level over 2 week culture” value (continuous 3 nM T3 treatment, maintained up to day 14) was “significantly increased by day 4”.
